From PubChem BioAssay (NCI)
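Five concentrations, 48 hours, 96-well plates. TGI denotes the concentration required for complete inhibition of growth.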

Key:
Test in all cases: NCI anticancer screen, dose series, 48 h
SK-MEL-28 melanoma = test system: SK-MEL-28 melanoma
MCF7 breast = test system: MCF7 breast
SR leukemia = test system: SR leukemia
SF-295 CNS = test system: SF-295 CNS
SNB-19 CNS = test system: SNB-19 CNS
HT29 colon = test system: HT29 colon
SK-OV-3 ovarian = test system: SK-OV-3 ovarian
U251 CNS = test system: U251 CNS
EKVX NSCLC = test system: EKVX NSCLC
SK-MEL-2 melanoma = test system: SK-MEL-2 melanoma
MDA-MB-435 = test system: MDA-MB-435
A549 NSCLC = test system: A549 NSCLC
RPMI-8226 leukemia = test system: RPMI-8226 leukemia
UACC-62 melanoma = test system: UACC-62 melanoma
LOX IMVI melanoma = test system: LOX IMVI melanoma
OVCAR-3 ovarian = test system: OVCAR-3 ovarian
KM12 colon = test system: KM12 colon
HOP-62 NSCLC = test system: HOP-62 NSCLC
MOLT-4 leukemia = test system: MOLT-4 leukemia
HCT-116 colon = test system: HCT-116 colon

Row | SMILES | TGI (SK-MEL-28 melanoma) [µM] | TGI (MCF7 breast) [µM] | TGI (SR leukemia) [µM] | TGI (SF-295 CNS) [µM] | TGI (SNB-19 CNS) [µM] | TGI (HT29 colon) [µM] | TGI (SK-OV-3 ovarian) [µM] | TGI (U251 CNS) [µM] | TGI (EKVX NSCLC) [µM] | TGI (SK-MEL-2 melanoma) [µM] | TGI (MDA-MB-435) [µM] | TGI (A549 NSCLC) [µM] | TGI (RPMI-8226 leukemia) [µM] | TGI (UACC-62 melanoma) [µM] | TGI (LOX IMVI melanoma) [µM] | TGI (OVCAR-3 ovarian) [µM] | TGI (KM12 colon) [µM] | TGI (HOP-62 NSCLC) [µM] | TGI (MOLT-4 leukemia) [µM] | TGI (HCT-116 colon) [µM]
1 | O=C(N/N=C/c1c(-c2ccccc2)no[n+]1[O-])N1CCOCC1 | > 100 | > 100 | 45.1 | > 100 | > 100 | > 100 | > 100 | > 100 | > 100 | > 100 | > 100 | > 100 | > 100 | > 100 | > 100 | > 100 | > 100 | > 100 | > 100 | > 100
2 | COc1ccc(N2C(=O)[C@H]3[C@H]4CC(C(C)(C)C)CC[C@H]4c4c(n(C)c5ccccc45)[C@H]3C2=O)cc1 (stereo not given in full) | > 100 | > 46.4 | > 100 | > 100 | > 100 | > 100 | > 100 | > 56.2 | > 46.4 | > 100 | > 100 | > 100 | > 100 | > 100 | > 100 | > 100 | > 61.3 | > 5.62 | > 100 | > 100
3 | COc1cccc(/C=C2\CCCc3ccccc3C2=O)c1 | 41.1 | 51.6 | 31.3 | 30.7 | 26.8 | 52.3 | 79.3 | 29.3 | 50.2 | 27.4 | 30.1 | > 100 | 64.1 | 25.8 | 38.9 | 34 | 38.8 | 31 | > 100 | 27.9
4 | O=c1[nH]/c(=C/c2ccc(OCc3ccccc3)cn2)c(=O)[nH]/c1=C/c1ccc(F)cc1 | > 100 | > 100 | 1.29 | > 27.5 | > 34.2 | > 32.4 | > 37.8 | > 35.7 | > 93.6 | > 52.2 | 0.687 | > 50 | 10.8 | > 50.2 | > 100 | 1.42 | > 40.9 | > 35.5 | > 34.4 | > 100
5 | COc1cccc2c1CCc1c(-c3ccc(F)cc3)cc(-c3ccc4ccccc4n3)nc1-2 | – | > 100 | > 100 | > 100 | > 100 | > 100 | > 100 | > 100 | > 100 | > 100 | > 100 | > 100 | > 100 | > 100 | > 100 | > 100 | > 100 | > 100 | > 100 | > 100
6 | Cc1c(S(=O)(=O)O)ccc(N=Nc2c(O)c(C(=O)O)cc3ccccc23)c1Cl | > 100 | > 100 | > 90.2 | > 100 | > 100 | > 100 | > 100 | > 100 | > 100 | > 100 | > 100 | > 100 | > 100 | > 100 | > 100 | > 100 | > 100 | > 100 | > 100 | > 100
7 | COc1ccc(S(=O)(=O)NC(CCC(=O)NN)C(=O)NN)cc1 (stereo not given) | > 100 | > 100 | > 100 | > 100 | > 100 | > 100 | > 100 | > 100 | > 100 | > 100 | > 100 | > 100 | > 100 | > 100 | > 100 | > 100 | > 100 | > 100 | > 100 | > 100
8 | CCN(CC)c1ccc2cc(C(N)=S)c(=N)oc2c1 | > 100 | > 100 | > 100 | > 100 | > 100 | > 100 | > 100 | > 100 | > 100 | > 100 | > 100 | > 100 | > 100 | > 100 | > 100 | – | > 100 | > 100 | > 100 | > 100
9 | CC1=NN(c2cccc(Cl)c2)C2(SCC(=O)N2c2nc3ccccc3s2)/C1=C\c1ccc(N(C)C)cc1 (stereo not given) | > 100 | > 100 | > 100 | > 100 | – | > 100 | 39.6 | > 100 | > 100 | 57.5 | > 100 | – | > 100 | – | > 100 | > 100 | > 100 | 48.6 | > 100 | > 100
